{"source": "paper PMC7681098", "about": "(Theranostics, 2021)", "key": {"ERK2/MAPK1": {"target": "T1, ERK2/MAPK1 (Homo sapiens, UniProt P28482)", "T1 construct": "purchased Reaction Biology Corporation (PA, USA)", "assay": "Kinase inhibition assay (Reaction Biology)", "type": "biochemical"}, "FGFR1": {"target": "T2, FGFR1 (Homo sapiens, UniProt P11362)", "T2 construct": "purchased Reaction Biology Corporation (PA, USA)", "T2 sequence (P11362 22-822)": "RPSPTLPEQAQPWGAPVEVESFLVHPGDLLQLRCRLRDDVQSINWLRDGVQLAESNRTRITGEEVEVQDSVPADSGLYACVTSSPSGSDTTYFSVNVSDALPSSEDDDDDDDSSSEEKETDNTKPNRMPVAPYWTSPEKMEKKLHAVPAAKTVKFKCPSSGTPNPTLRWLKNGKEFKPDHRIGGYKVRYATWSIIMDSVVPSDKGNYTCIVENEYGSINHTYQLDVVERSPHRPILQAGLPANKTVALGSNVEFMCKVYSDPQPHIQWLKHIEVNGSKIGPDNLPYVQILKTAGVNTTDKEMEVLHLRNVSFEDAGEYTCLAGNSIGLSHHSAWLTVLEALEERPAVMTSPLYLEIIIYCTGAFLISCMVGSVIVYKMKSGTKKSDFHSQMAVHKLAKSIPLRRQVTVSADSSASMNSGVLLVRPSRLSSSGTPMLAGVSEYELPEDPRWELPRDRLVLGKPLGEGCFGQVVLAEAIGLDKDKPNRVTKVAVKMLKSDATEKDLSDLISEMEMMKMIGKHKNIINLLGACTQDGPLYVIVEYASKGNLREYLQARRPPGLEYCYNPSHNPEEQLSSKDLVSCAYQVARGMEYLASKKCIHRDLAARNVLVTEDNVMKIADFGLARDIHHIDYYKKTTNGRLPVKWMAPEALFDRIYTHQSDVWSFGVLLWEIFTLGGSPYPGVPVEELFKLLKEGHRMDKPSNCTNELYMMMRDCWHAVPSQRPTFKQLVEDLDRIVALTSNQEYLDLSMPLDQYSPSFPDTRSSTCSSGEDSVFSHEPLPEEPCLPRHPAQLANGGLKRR", "assay": "Kinase inhibition assay (Reaction Biology)", "type": "biochemical"}, "FLT1/VEGFR1": {"target": "T3, FLT1/VEGFR1 (Homo sapiens, UniProt P17948)", "T3 construct": "purchased Reaction Biology Corporation (PA, USA)", "T3 sequence (P17948 27-1338)": "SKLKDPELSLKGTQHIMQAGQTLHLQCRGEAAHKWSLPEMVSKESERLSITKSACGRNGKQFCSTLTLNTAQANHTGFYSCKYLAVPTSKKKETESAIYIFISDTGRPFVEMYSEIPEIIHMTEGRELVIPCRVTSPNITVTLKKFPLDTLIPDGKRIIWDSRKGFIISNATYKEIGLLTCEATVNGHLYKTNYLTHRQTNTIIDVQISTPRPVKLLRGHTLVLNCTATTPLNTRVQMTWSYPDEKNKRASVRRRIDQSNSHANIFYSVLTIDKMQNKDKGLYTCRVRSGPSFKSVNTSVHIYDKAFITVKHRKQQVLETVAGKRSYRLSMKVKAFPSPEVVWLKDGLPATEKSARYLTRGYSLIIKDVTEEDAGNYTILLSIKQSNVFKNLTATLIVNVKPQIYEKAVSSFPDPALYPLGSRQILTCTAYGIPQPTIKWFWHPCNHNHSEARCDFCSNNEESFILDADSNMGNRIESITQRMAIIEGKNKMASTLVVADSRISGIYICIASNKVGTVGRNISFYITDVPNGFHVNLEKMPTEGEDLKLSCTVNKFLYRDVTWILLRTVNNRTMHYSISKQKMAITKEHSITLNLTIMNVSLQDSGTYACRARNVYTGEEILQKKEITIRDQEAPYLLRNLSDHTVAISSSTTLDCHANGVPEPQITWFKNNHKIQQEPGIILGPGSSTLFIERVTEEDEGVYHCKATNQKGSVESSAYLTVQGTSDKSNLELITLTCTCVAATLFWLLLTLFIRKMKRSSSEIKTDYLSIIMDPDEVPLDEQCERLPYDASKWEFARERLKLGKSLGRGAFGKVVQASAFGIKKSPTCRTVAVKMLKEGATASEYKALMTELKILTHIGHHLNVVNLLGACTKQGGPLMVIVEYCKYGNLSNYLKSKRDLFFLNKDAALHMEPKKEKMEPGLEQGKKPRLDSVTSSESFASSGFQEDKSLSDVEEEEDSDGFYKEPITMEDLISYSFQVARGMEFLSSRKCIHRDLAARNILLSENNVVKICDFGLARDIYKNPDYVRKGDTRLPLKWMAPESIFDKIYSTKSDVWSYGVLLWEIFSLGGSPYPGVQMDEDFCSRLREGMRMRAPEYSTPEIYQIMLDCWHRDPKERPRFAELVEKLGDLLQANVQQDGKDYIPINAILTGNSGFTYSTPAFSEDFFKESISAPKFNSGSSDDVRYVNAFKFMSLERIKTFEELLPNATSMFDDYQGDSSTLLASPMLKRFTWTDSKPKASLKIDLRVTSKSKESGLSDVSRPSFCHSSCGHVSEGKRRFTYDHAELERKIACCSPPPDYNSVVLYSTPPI", "assay": "Kinase inhibition assay (Reaction Biology)", "type": "biochemical"}, "FLT3 (ITD)": {"target": "FLT3 (ITD) (Homo sapiens, UniProt P36888, ITD)", "sequence (P36888 564-993, change not shown)": "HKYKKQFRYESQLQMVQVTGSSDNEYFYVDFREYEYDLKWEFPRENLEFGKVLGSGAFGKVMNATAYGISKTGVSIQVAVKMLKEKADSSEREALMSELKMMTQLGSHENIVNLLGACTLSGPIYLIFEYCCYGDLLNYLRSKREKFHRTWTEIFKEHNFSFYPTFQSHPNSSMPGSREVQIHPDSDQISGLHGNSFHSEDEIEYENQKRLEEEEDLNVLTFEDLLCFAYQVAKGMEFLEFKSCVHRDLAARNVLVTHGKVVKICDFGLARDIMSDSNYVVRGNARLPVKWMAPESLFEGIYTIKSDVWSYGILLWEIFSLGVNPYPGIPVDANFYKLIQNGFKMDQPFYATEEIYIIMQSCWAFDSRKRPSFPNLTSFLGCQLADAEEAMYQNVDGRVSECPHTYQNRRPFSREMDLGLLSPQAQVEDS", "assay": "biochemical"}, "JAK2": {"target": "T4, JAK2 (Homo sapiens, UniProt O60674)", "T4 construct": "purchased Reaction Biology Corporation (PA, USA)", "assay": "Kinase inhibition assay (Reaction Biology)", "type": "biochemical"}, "PK study in mice": {"assay": "PK study in mice", "type": "in vivo, BALB/c mice", "conditions": "for MRT last: read-out: MRT(0-t); for MRT inf: read-out: MRT(0-∞); for concentration at 12 h: read-out: plasma concentration 12 h after administration; for half-life: read-out: apparent plasma half-life (t1/2z) (converted)", "experimental": "After dosing, blood samples were collected at indicated time points (15 min, 30 min, 45 min, 60 min, 90 min, 2 h, 4 h, 6 h, 8 h, 12 h, 24 h). Blood samples from each group were collected at each time point and the supernatant was collected and used for HPLC/LC-MAS analysis.\nThen, plasma levels of LT-171-861 were measured at each indicated time point. […] This inhibition efficacy lasted for 24 h, in accordance with the results of the PK experiment."}, "FLT3": {"test_system": "FLT3", "assay": "PD study in subcutaneous MV4-11 xenograft mice", "type": "in vivo, BALB/c nude mice", "conditions": "single dose 10 mg/kg intravenous", "experimental": "An MV4-11 cell tumor model was established by subcutaneous injection. Six-week-old female BALB/c nude mice were used for the subcutaneous model. […] Mice were sacrificed and tumor tissues were freshly dissected, homogenized, and centrifuged at 16000 g for 20 min. The phosphorylation levels of FLT3 were measured by Western blot.\nBlue square and solid line represent intravenous injection administration. […] Mice were sacrificed at indicated time points and then tumor tissues were dissected and lysed. Phosphorylation levels of FLT3, STAT5 and ERK1/2 were measured by western blotting. (C) Bone marrow mononuclear cells (BMMCs) were isolated from healthy C57BL/6 mice. […] Apoptosis assays were conducted after 36-hour incubation. […] 24 h after the last administration, c-Kit^+ cells were evaluated by flow cytometry. […] Data were shown with mean±SD."}, "[1]": {"test_system": "MV4-11 cells and MOLM13 cells", "assay": "Subcutaneous xenograft model", "type": "in vivo, BALB/c nude mice", "experimental": "According to previously described, [31], BALB/c nude mice were subcutaneously inoculated with MV4-11 cells (5×10^6) and MOLM13 cells (5×10^6). […] Tumor volume and body weight were measured with the caliper twice weekly. Tumor volumes were calculated based on: tumor volume=length×width^2/2.\nLT-171-861 was administered every two days in xenograft mice. […] Tumor-eliminated mice were monitored for an additional 20 days after dosing was halted.\n(§1) Data were shown as mean±SD. […] Data were shown as mean±SD. (C) An engrafted tumor model was used to evaluate in vivo antitumor activity. The NOD/SCID mice were intravenously inoculated with MV4-11 cells. […] Log-rank testing was used to compare survival curves among treatment groups. […] (D) Apoptotic assays in engraft model were evaluated by TUNEL assay and cell proliferative activity was measured by Ki67 assay. Images were acquired at ×40 magnification. (E) BALB/c nude mice were subcutaneously inoculated with MV4-11 cells (5×10^6) and bodyweight of each mouse was recorded every other day. (F) Representative photo of tumors from BALB/c nude mice which were inoculated with MV4-11 cells. (G) BALB/c nude mice were subcutaneously inoculated with BaF3 cells bearing FLT3-ITD-N676D (n=6) and FLT3-ITD-F691L (n=6) respectively. […] (H) BALB/c mice were intravenously inoculated with cells used in (G). […] Log-rank testing was used to compare survival curves among treatment groups. […] (I) Representative photos of spleens dissected from mice in (H) inoculated with BaF3 cells bearing FLT-3-ITD-F691L."}, "MV4-11 cells": {"test_system": "MV4-11 cells", "assay": "Bone marrow engrafted model, survival", "type": "in vivo, NOD-SCID mice", "conditions": "MV4-11 bone marrow engraftment; LT-171-861 10 mg/kg every other day, sorafenib orally every day", "experimental": "Six-week-old female NOD-SCID mice were treated with sub-lethal dose radiation (1.8 Gy) before intravenous injection of MV4-11 cells (5×10^6) or MOLM13 cells (5×10^6).\nas §1\nMice that received vehicle treatment died within 30 days after intravenous injection of MV4-11 cells."}, "[2]": {"test_system": "BaF3 cells transfected with FLT3-ITD-N676D and FLT3-ITD-F691L", "assay": "Subcutaneous xenograft with transfected BaF3 cells", "type": "in vivo, BALB/c nude mice", "conditions": "10 mg/kg every other day for 16 days", "experimental": "as §1\nCells were injected into the tail vein of BALB/c nude mice and allowed to engraft for 5 days. […] This schedule was repeated for 8 cycles."}, "[3]": {"test_system": "AML patient blasts expressing FLT3-ITD", "assay": "Viability of AML patient blasts (MTT)", "type": "cell-based, human", "conditions": "72 h, compared with AC220 and sorafenib"}, "[4]": {"conditions": "female, BALB/c, mouse, plasma, 10 mg/kg, IV"}, "[5]": {"conditions": "female, BALB/c, mouse, plasma, po, 10 mg/kg, IG"}}, "note": "Where two headings read alike, the source gives them in different places."}
{"smiles": "CN1CCN(Cc2ccc(NC(=O)c3n[nH]cc3Nc3ncnc4[nH]ccc34)cc2)CC1", "note": "[LT-171-861]", "values": [{"measurement": "IC50", "setting": "ERK2/MAPK1; 10 μM ATP, 10-dose IC50 mode, read-out: IC50 ERK2/MAPK1", "result": 798, "unit": "nM"}, {"measurement": "IC50", "setting": "ERK2/MAPK1; read-out: IC50 ERK2", "result": "> 200", "unit": "nM"}, {"measurement": "IC50", "setting": "FGFR1", "result": 20, "unit": "nM"}, {"measurement": "IC50", "setting": "FLT1/VEGFR1", "result": 5.6, "unit": "nM"}, {"measurement": "IC50", "setting": "FLT3 (ITD)", "result": "< 1", "unit": "nM"}, {"measurement": "IC50", "setting": "FLT3 (ITD); 10 μM ATP, 10-dose IC50 mode", "result": 0.718, "unit": "nM"}, {"measurement": "IC50", "setting": "JAK2", "result": 33.8, "unit": "nM"}, {"measurement": "CLz", "setting": "PK study in mice; 10 mg/kg, IG", "result": 314.0953, "unit": "mL/min/kg"}, {"measurement": "Vz", "setting": "PK study in mice; 10 mg/kg, IG", "result": 100.1863, "unit": "L/kg"}, {"measurement": "AUC(0-inf)", "setting": "PK study in mice; [4]", "result": 3380, "unit": "ng·h/mL"}, {"measurement": "AUC(0-t)", "setting": "PK study in mice; [4]", "result": 3310, "unit": "ng·h/mL"}, {"measurement": "clearance", "setting": "PK study in mice; female, BALB/c, mouse, plasma, 10 mg/kg, IV, read-out: CLz (converted)", "result": 49.3, "unit": "mL/min/kg"}, {"measurement": "MRT last", "setting": "PK study in mice; [4]", "result": 1.86, "unit": "h"}, {"measurement": "MRT inf", "setting": "PK study in mice; [4]", "result": 2.1, "unit": "h"}, {"measurement": "Vd", "setting": "PK study in mice; female, BALB/c, mouse, plasma, 10 mg/kg, IV, read-out: Vz", "result": 8.61, "unit": "L/kg"}, {"measurement": "Cmax", "setting": "PK study in mice; female, BALB/c, mouse, plasma, 10 mg/kg, intravenous injection (IV)", "result": 2170, "unit": "ng/mL"}, {"measurement": "Cmax", "setting": "PK study in mice; female, BALB/c, mouse, plasma, 10 mg/kg, oral administration", "result": 200, "unit": "nM"}, {"measurement": "Cmax", "setting": "PK study in mice; female, BALB/c, mouse, plasma, 10 mg/kg, oral administration (IG)", "result": 88, "unit": "ng/mL"}, {"measurement": "concentration at 12 h", "setting": "PK study in mice; female, BALB/c, mouse, plasma, intravenous, 10 mg/kg, i.v", "result": 50.1, "unit": "nM"}, {"measurement": "half-life", "setting": "PK study in mice; female, BALB/c, mouse, plasma, iv, 10 mg/kg, intravenous (tail) injection (IV)", "result": 2.02, "unit": "h"}, {"measurement": "bioavailability", "setting": "PK study in mice; female, BALB/c, mouse, plasma, oral versus intravenous at 10 mg/kg", "result": "~15", "unit": "%"}, {"measurement": "concentration at 12 h", "setting": "PK study in mice; female, BALB/c, mouse, plasma, oral, 10 mg/kg, p.o", "result": 30, "unit": "nM"}, {"measurement": "AUC(0-inf)", "setting": "PK study in mice; [5]", "result": 531, "unit": "ng·h/mL"}, {"measurement": "AUC(0-t)", "setting": "PK study in mice; [5]", "result": 463, "unit": "ng·h/mL"}, {"measurement": "MRT last", "setting": "PK study in mice; [5]", "result": 4.28, "unit": "h"}, {"measurement": "MRT inf", "setting": "PK study in mice; [5]", "result": 5.95, "unit": "h"}, {"measurement": "Tmax", "setting": "PK study in mice; female, BALB/c, mouse, plasma, po, 10 mg/kg, oral administration (IG), read-out: Tmax (time to maximum plasma level)", "result": 1, "unit": "h"}, {"measurement": "half-life", "setting": "PK study in mice; female, BALB/c, mouse, plasma, po, 10 mg/kg, oral administration (IG)", "result": 3.68, "unit": "h"}, {"measurement": "duration of inhibition of FLT3 autophosphorylation and downstream effectors", "setting": "FLT3", "result": 24, "unit": "h"}, {"measurement": "inhibition of p-FLT3, p-STAT5 and p-ERK1/2 in tumor", "setting": "FLT3; western blot", "result": "sustained inhibition"}, {"measurement": "tumor growth in xenograft models", "setting": "[1]; 10 mg/kg intravenous every two days, 20 or 24-day treatment", "result": "complete tumor regression was achieved"}, {"measurement": "bodyweight during dosing", "setting": "[1]; MV4-11 cell line xenograft model", "result": "no significant weight suppression"}, {"measurement": "H&E staining in liver, heart, spleen, lung and kidney", "setting": "[1]; MV4-11 cell line xenograft model, end of experiment", "result": "no significant damage"}, {"measurement": "tumor regrowth after dosing was halted", "setting": "[1]; monitored for an additional 20 days", "result": "No tumor regrowth was observed"}, {"measurement": "survival versus vehicle", "setting": "MV4-11 cells", "result": "increased survival rates"}, {"measurement": "tumor growth", "setting": "[2]", "result": "inhibited tumor growth"}, {"measurement": "antileukemic activity in blasts with FLT3-ITD mutations", "setting": "[3]", "result": "comparable antileukemic activity"}]}
